Assay results: the supplement of paper PMC10307832

How the values were obtained:
Experiment in all cases: relative viability (nuclei count vs DMSO), 5 days (fraction); higher = more cells survive
IDH-C35 + Trametinib = compound: Cc1ccccc1C(C(=O)NC1CCCCC1)N(C(=O)Cn1ccnc1C)c1cccc(F)c1 [IDH-C35] + CC(=O)Nc1cccc(-n2c(=O)n(C3CC3)c(=O)c3c(Nc4ccc(I)cc4F)n(C)c(=O)c(C)c32)c1 [Trametinib] (partner 0.02 µM)
Procedure, shortened: (§1)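 Lung cancer cell lines, seeded in 1536-well plates, were treated the following day by pin tool with a single drug or with five library-drug doses (not always all listed) in √10 steps on top of a fixed anchor-drug dose. Cells were fixed and nuclei stained in one step after 5 days, and nuclei were counted. Relative viability is the nuclei count for treated wells divided by that for vehicle wells, reported as medians of duplicate plates.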

[1] = compound: CC1=C(C(=NN1)C)CC2=C(C3=C(S2)N(C(=O)N(C3=O)C)CC(C)C)C(=O)N4C[C@@H](CO4)O + COc1cc2c(Oc3ccc(NC(=O)C4(C(=O)Nc5ccc(F)cc5)CC4)cc3F)ccnc2cc1OCCCN1CCOCC1 [Foretinib] (partner 0.25 µM)
Procedure, shortened: as §1

[2] = compound: CC1=C(C(=NN1)C)CC2=C(C3=C(S2)N(C(=O)N(C3=O)C)CC(C)C)C(=O)N4C[C@@H](CO4)O + O=C(CCCCCCC(=O)Nc1ccccc1)NO [Vorinostat] (partner 1 µM)
Procedure, shortened: as §1

IDH-C35 + Navitoclax = compound: Cc1ccccc1C(C(=O)NC1CCCCC1)N(C(=O)Cn1ccnc1C)c1cccc(F)c1 [IDH-C35] + CC1(C)CCC(c2ccc(Cl)cc2)=C(CN2CCN(c3ccc(C(=O)NS(=O)(=O)c4ccc(N[C@H](CCN5CCOCC5)CSc5ccccc5)c(S(=O)(=O)C(F)(F)F)c4)cc3)CC2)C1 [Navitoclax] (partner 0.5 µM)
Procedure, shortened: as §1

| Cell Line | relative viability (IDH-C35 + Trametinib; first compound 0.08 µM) | relative viability (IDH-C35 + Trametinib; first compound 0.253 µM) | relative viability (IDH-C35 + Trametinib; first compound 0.8 µM) | relative viability (IDH-C35 + Trametinib; first compound 2.53 µM) | relative viability (IDH-C35 + Trametinib; first compound 8 µM) | relative viability ([1]; first compound 0.0025 µM) | relative viability ([1]; first compound 0.007906 µM) | relative viability ([1]; first compound 0.025 µM) | relative viability ([1]; first compound 0.07906 µM) | relative viability ([1]; first compound 0.25 µM) | relative viability ([2]; first compound 0.0025 µM) | relative viability ([2]; first compound 0.007906 µM) | relative viability ([2]; first compound 0.025 µM) | relative viability ([2]; first compound 0.07906 µM) | relative viability ([2]; first compound 0.25 µM) | relative viability (IDH-C35 + Navitoclax; first compound 0.08 µM) | relative viability (IDH-C35 + Navitoclax; first compound 0.253 µM) | relative viability (IDH-C35 + Navitoclax; first compound 0.8 µM) | relative viability (IDH-C35 + Navitoclax; first compound 2.53 µM) | relative viability (IDH-C35 + Navitoclax; first compound 8 µM) |
| --- | --- | --- | --- | --- | --- | --- | --- | --- | --- | --- | --- | --- | --- | --- | --- | --- | --- | --- | --- | --- |
| 201T | 0.727 | 0.7 | 0.718 | 0.701 | 0.676 | 1.18 | 1.16 | 1.02 | 1.11 | 1.2 | 0.979 | 1.02 | 0.951 | 0.952 | 0.973 | 1.18 | 1.19 | 1.19 | 1.17 | 1.19 |
| A549 |  |  |  |  |  | 1.03 | 1.02 | 0.906 | 1 | 1.1 |  |  |  |  |  | 1.19 | 1.16 | 1.17 | 1.22 | 1.15 |
| A-427 | 0.791 | 0.784 | 0.77 | 0.722 | 0.705 | 1.29 | 1.22 | 0.937 | 1.11 | 1.14 | 0.899 | 0.895 | 0.865 | 0.826 | 0.929 | 0.975 | 0.975 | 0.904 | 0.949 | 0.952 |
| ABC-1 |  |  |  |  |  | 1.02 | 1.06 | 0.955 | 1.07 | 1 | 1.08 | 1.27 |  | 0.904 | 0.864 |  |  |  |  |  |
| BEN | 0.954 | 1.04 | 1.02 | 1.16 | 1.16 | 0.666 | 0.629 | 0.577 | 0.661 | 0.596 | 0.553 | 0.493 | 0.593 | 0.527 | 0.536 | 0.0634 | 0.062 | 0.0706 | 0.0643 | 0.0666 |
| CAL-12T | 0.389 | 0.434 | 0.371 | 0.36 | 0.354 | 1.08 | 1.3 | 1.05 | 1.25 | 1.17 | 0.956 | 0.962 | 0.827 | 0.801 | 0.772 | 1.32 | 1.19 | 1.06 | 1.36 | 1.09 |
| COR-L23 | 0.599 | 0.639 | 0.591 | 0.565 | 0.54 | 0.947 | 1.07 | 0.8 | 0.87 | 0.846 | 0.499 | 0.378 | 0.37 | 0.422 | 0.484 | 1.17 | 0.907 | 0.977 | 0.979 | 1.05 |
| COR-L 105 | 0.444 | 0.451 | 0.446 | 0.485 | 0.39 | 1.1 | 0.899 | 0.974 | 1.03 | 1.06 | 0.89 | 0.918 | 0.374 | 0.86 | 0.744 | 1.01 | 1.04 | 0.64 | 0.899 | 0.569 |
| Calu-6 |  |  |  |  |  | 0.984 | 0.813 | 0.715 | 0.809 | 0.897 |  |  |  |  |  | 0.838 | 0.765 | 0.997 | 0.968 | 0.78 |
| ChaGo-K-1 | 0.897 | 0.878 | 0.944 | 0.844 | 0.899 | 0.886 | 0.979 | 0.888 | 0.914 | 0.968 | 0.73 | 0.811 | 0.755 | 0.725 | 0.787 | 0.62 | 0.966 | 1.09 | 0.73 | 1.17 |
| EBC-1 |  |  |  |  |  | 0.117 | 0.107 | 0.12 | 0.107 | 0.103 |  |  |  |  |  | 0.364 | 0.503 | 0.52 | 0.359 | 0.203 |
| EKVX | 0.398 | 0.279 | 0.37 | 0.353 | 0.277 | 0.884 | 0.736 | 0.69 | 0.732 | 0.744 | 0.863 | 0.756 | 0.806 | 0.604 | 0.416 | 1.17 | 0.911 | 0.899 | 1.01 | 0.897 |
| EMC-BAC-2 | 0.888 | 0.816 | 0.837 | 0.823 | 0.833 | 1.04 | 1.09 | 1.07 | 1.08 | 1.04 | 0.487 | 0.513 | 0.386 | 0.565 | 0.538 | 1.13 | 1.12 | 1.15 | 1.12 | 1.14 |
| EPLC-272H | 0.259 | 0.308 | 0.324 |  | 0.257 | 0.73 | 0.618 | 0.765 | 0.657 | 0.643 | 0.454 | 0.447 | 0.61 | 0.438 | 0.351 | 1.27 | 1.13 | 1.13 |  | 1.07 |
| H3255 | 0.699 | 0.692 | 0.536 | 0.548 | 0.59 | 1.03 | 0.968 | 0.784 | 0.802 | 0.775 | 0.969 | 0.716 | 0.821 | 0.844 | 0.854 | 0.577 | 0.543 | 0.495 | 0.606 | 0.636 |
